# Test system: coagulation factor XI
# Assay: In vivo activity in cynomolgus monkeys, plasma FXI activity
# Conditions: cynomolgus monkey plasma, subcutaneous once, 4.2 mg/kg (first row, dose by order of Table 17)
# Description: On day 7 before administration, female cynomolgus monkeys weighing 2-4 kg were fasted overnight, and about 1 mL of blood was collected from the femoral vein. Plasma was collected by centrifugation. FXI protein (Human Coagulation Factor XI ELISAkit, Thermo, Cat. No. EH118RB), FXI activity (coagulation factor XI assay kit, Stago, Cat. No. 00723), and APTT (activated partial thromboplastin time assay kit, Stago, Cat. No. 00595) were measured. The monkeys were evenly divided into groups based on these indicators. On day 0, the dsRNA ligand conjugates of the present application (TD02M02L01, etc.) were injected. On day 0, day 3, day 7, day 14, day 21, day 28, day 37, day 54, and day 68, plasma was collected to measure plasma FXI protein, FXI activity, and activated partial thromboplastin time (APTT).
# The coagulation factor XI activity inhibition rate was calculated according to the following equation: [formula]
# The content of the coagulation factor XI protein, the FXI activity, and the activated partial thromboplastin time in animal plasma were measured before and on day 0, day 3, day 7, day 14, day 21, day 28, day 37, day 54, and day 68 after the subcutaneous administration of the dsRNA ligand conjugates of the present application at doses of 4.2 mg/kg and 14 mg/kg to cynomolgus monkeys (Table 17). […] Table 17. In vivo experimental design
substance,measurement,setting,value
"TD02M02L01: dsRNA ligand conjugate: TD02M02 with L01 (GalNAc) ligand at 3' end of sense strand SEQ ID NO 35; antisense SEQ ID NO 36 (sense GGATGATTTTCTTATATCA; antisense TGATATAAGAAAATCATCCTG; GalNAc L01 ligand at sense 3' end, 2'-OMe/2'-F, pattern not given here)",Relative inhibition rate (%) of FXI activity,D3,20.5%
same,Relative inhibition rate (%) of FXI activity,D7,66.0%
same,Relative inhibition rate (%) of FXI activity,D14,84.7%
same,Relative inhibition rate (%) of FXI activity,D21,88.9%
same,Relative inhibition rate (%) of FXI activity,D28,89.2%
same,Relative inhibition rate (%) of FXI activity,D37,92.6%
same,Relative inhibition rate (%) of FXI activity,D54,91.4%
